EP4755886A1 (Chengdu Chipscreen Pharmaceutical Ltd., priority 2023, dated 2025)

How the values were obtained:
[1] = test system: wild-type HCT-116 cells; experiment: Cell proliferation (MTS), wild-type HCT-116; type: cell-based; settings: Homo sapiens, 240 h; wild-type HCT-116, 10 days with compound, MTS reading; read-out: IC50 HCT116 WT
Method: (§1) MTAP^-/- HCT-116 and wild-type HCT-116 cell strains were cultured in complete medium McCoy's 5A (Gibco, 16600082)/10% FBS (Gibco, 10099141C)/1% p/s (Gibco, 15140122) to evaluate the enhanced inhibitory effect of the compounds against the proliferation selectivity of MTAP^-/- HCT-116 cells. On day 0, MTAP^-/- HCT-116 cells or wild-type HCT-116 cells were added to a 96-well cell culture plate (Corning, 3599) at 100 cells/well, and the plate was incubated in an incubator at 37 °C with 5% CO2. The compound was diluted in a 3-fold gradient with DMSO (Sigma, D5879) (initial concentration: 20 µM, 3-fold dilution, 8 concentration points in total). On day 1, the compound was diluted to multiple concentration points, and the cells were treated separately and incubated in the incubator at 37 °C with 5% CO2 for another 10 days. On Day 11, 20 µL of MTS (CellTiter 96® AQueous One Solution Cell Proliferation Assay) (Promega, G3581) was added to each well. […] In the formula, Y represents the inhibition rate, X represents the logarithm of the compound concentration, Top represents the maximum response (the inhibition rate at the maximum compound concentration), Bottom represents the baseline response (the inhibition rate where the compound concentration was 0), Hill Slope represents the slope of the IC50 curve, and IC50 represents the half maximal inhibitory concentration. Table 1. IC50 (µM)

[2] = test system: MTAP^-/- HCT-116 cells; experiment: Cell proliferation (MTS), MTAP-/- HCT-116; type: cell-based, human; settings: for Selectivity: HCT116 WT IC50 relative to HCT116 MTAP-/- IC50; for IC50: Homo sapiens, 240 h, MTAP-/- HCT-116, 10 days with compound, MTS reading, read-out: IC50 HCT116 MTAP-/-
From the text: The colon cancer cell strain HCT-116 (purchased from Nanjing Cobioer) was co-transfected with the gene editing tool CRISPR/Cas9 and sgRNA, and the MTAP^-/- HCT-116 cell strain with biallelic inactivation of MTAP was obtained by assays such as Western Blotting and Sanger sequencing. The MTAP^-/- HCT-116 cell strain was used for compound selectivity screening and evaluation based on the synergistic mechanism of MTAP deletion and PRMT5, including a symmetric dimethylarginine (SDMA) level test, a cell proliferation test, and the like.
as §1, with “On” for “MTAP^-/- HCT-116 and wild-type HCT-116 cell strains were cultured in complete medium McCoy's 5A (Gibco, 16600082)/10% FBS (Gibco, 10099141C)/1% p/s (Gibco, 15140122) to evaluate the enhanced inhibitory effect of the compounds against the proliferation selectivity of MTAP^-/- HCT-116 cells. On”, “concentration.” for “concentration. Table 1. IC50 (µM)”

| SMILES | IC50 [1] [nM] | IC50 [2] [nM] | Selectivity [2] |
| --- | --- | --- | --- |
| CN(C(=O)c1ccc2nc(N)c3c(c2c1)COC3)C1COc2cc(C#Cc3cnn(C)c3)ccc21 (racemic) [Compound 3, 4-amino-N-methyl-N-(6-((1-methyl-1H-pyrazol-4-yl)ethynyl)-2,3-dihydrobenzofuran-3-yl)-1,3-dihydrofuran[3,4-c]quinoline-8-carboxamide] | 4310 | 27 | 160 |
| CN(C(=O)c1ccc2nc(N)c3cnn(C)c3c2c1)C1COc2cc(C#Cc3cnn(C)c3)ccc21 (stereo not drawn) [Compound 1, 4-amino-N,1-dimethyl-N-(6-((1-methyl-1H-pyrazol-4-yl)ethynyl)-2,3-dihydrobenzofuran-3-yl)-1H-pyrazolo[4,3-c]quinoline-8-carboxamide] | 1800 | 12.9 | 140 |
| Cn1cc(C#Cc2ccc3c(c2)OCC3N(C(=O)c2ccc3nc(N)c4cnn(C)c4c3c2)C2CC2)cn1 (stereo not drawn) [Compound 2, 4-amino-N-cyclopropyl-1-methyl-N-{6-[(1-methylpyrazol-4-yl)ethynyl]-2,3-dihydro-1-benzofuran-3-yl}pyrazolo[4,3-c]quinoline-8-carboxamide] | 1030 | 13.9 | 74 |
| CN(C(=O)c1cc2c(cc1F)nc(N)c1cnn(C)c12)C1COc2cc(C#Cc3cnn(C)c3)ccc21 (stereo not drawn) [Compound 5, 4-amino-7-fluoro-N,1-dimethyl-N-(6-((1-methyl-1H-pyrazol-4-yl)ethynyl)-2,3-dihydrobenzofuran-3-yl)-1H-pyrazolo[4,3-c]quinoline-8-carboxamide] | 584 | 6 | 97 |
| CN1CC=C(C#Cc2ccc3c(c2)OCC3N(C)C(=O)c2ccc3nc(N)c4cnn(C)c4c3c2)CC1 (stereo not drawn) [Compound 6, 4-amino-N,1-dimethyl-N-(6-((1-methyl-1,2,3,6-tetrahydropyridin-4-yl)ethynyl)-2,3-dihydrobenzofuran-3-yl)-1H-pyrazolo[4,3-c]quinoline-8-carboxamide] | 2780 | 10.8 | 257 |
| CCN(C(=O)c1ccc2nc(N)c3cnn(C)c3c2c1)C1COc2cc(C#Cc3cnn(C)c3)ccc21 (stereo not drawn) [Compound 7, 4-amino-N-ethyl-1-methyl-N-(6-((1-methyl-1H-pyrazol-4-yl)ethynyl)-2,3-dihydrobenzofuran-3-yl)-1H-pyrazolo[4,3-c]quinoline-8-carboxamide] | 593 | 5.4 | 110 |
| CN(C(=O)c1cc2c(cc1Cl)nc(N)c1cnn(C)c12)C1COc2cc(C#Cc3cnn(C4CC4)c3)ccc21 (stereo not drawn) [Compound 8, 4-amino-7-chloro-N-(6-((1-cyclopropyl-1H-pyrazol-4-yl)ethynyl)-2,3-dihydrobenzofuran-3-yl)-N,1-dimethyl-1H-pyrazolo[4,3-c]quinoline-8-carboxamide] | 141 | 3 | 47 |
| CN(C(=O)c1cc2c(cc1Cl)nc(N)c1cnn(C)c12)C1COc2cc(C#Cc3cnn(C)c3)ccc21 (stereo not drawn) [Compound 9, 4-amino-7-chloro-N,1-dimethyl-N-(6-((1-methyl-1H-pyrazol-4-yl)ethynyl)-2,3-dihydrobenzofuran-3-yl)-1H-pyrazolo[4,3-c]quinoline-8-carboxamide] | 97.7 | 0.9 | 109 |
| CC(C)n1cc(C#Cc2ccc3c(c2)OCC3N(C)C(=O)c2cc3c(cc2Cl)nc(N)c2cnn(C)c23)cn1 (stereo not drawn) [Compound 14, 4-amino-7-chloro-N-(6-((1-isopropyl-1H-pyrazol-4-yl)ethynyl)-2,3-dihydrobenzof uran-3-yl)-N,1-dimethyl-1H-pyrazolo[4,3-c]quinoline-8-carboxamide] |  | 9 |  |
| CCn1cc(C#Cc2ccc3c(c2)OCC3N(C)C(=O)c2cc3c(cc2Cl)nc(N)c2cnn(C)c23)cn1 (stereo not drawn) [Compound 15, 4-amino-7-chloro-N-(6-((1-ethyl-1H-pyrazol-4-yl)ethynyl)-2,3-dihydrobenzofuran-3-yl)-N,1-dimethyl-1H-pyrazolo[4,3-c]quinoline-8-carboxamide] |  | 4.8 |  |
| Cc1nn(C)cc1C#Cc1ccc2c(c1)OCC2N(C)C(=O)c1cc2c(cc1Cl)nc(N)c1cnn(C)c12 (stereo not drawn) [Compound 26, 4-amino-7-chloro-N-(6-((1,3-dimethyl-1H-pyrazol-4-yl)ethynyl)-2,3-dihydrobenzofuran-3-yl)-N,1-dimethyl-1H-pyrazolo[4,3-c]quinoline-8-carboxamide] |  | 2.8 |  |
| CCN(C(=O)c1cc2c(cc1Cl)nc(N)c1cnn(C)c12)C1COc2cc(C#Cc3cnn(C)c3)ccc21 (stereo not drawn) [Compound 28, 4-amino-7-chloro-N-ethyl-1-methyl-N-(6-((1-methyl-1H-pyrazol-4-yl)ethynyl)-2,3-dihydrobenzofuran-3-yl)-1H-pyrazolo[4,3-c]quinoline-8-carboxamide] |  | 2.3 |  |
| CN(C(=O)c1cc2c(cc1F)nc(N)c1cnn(C)c12)C1COCc2cc(C#Cc3cnn(C)c3)ccc21 (stereo not drawn) [Compound 72, 4-amino-7-fluoro-N,1-dimethyl-N-(7-((1-methyl-1H-pyrazol-4-yl)ethynyl)isochroman-4-yl)-1H-pyrazolo[4,3-c]quinoline-8-carboxamide] |  | 6 |  |

Now from value to compound, other results behind:

| IC50 [1] [nM] | IC50 [2] [nM] | SMILES | Selectivity [2] |
| --- | --- | --- | --- |
|  | 0.9 | Cc1nn(C)cc1C#Cc1ccc2c(c1)OC[C@H]2N(C)C(=O)c1cc2c(cc1Cl)nc(N)c1cnn(C)c12 [Compound 26A, (S)-4-amino-7-chloro-N-(6-((1,3-dimethyl-1H-pyrazol-4-yl)ethynyl)-2,3-dihydrobenzofuran-3-yl)-N,1-dimethyl-1H-pyrazolo[4,3-c]quinoline-8-carboxamide] |  |
|  | 11 | CN(C(=O)c1cc2c3c(c(N)nc2cc1F)COC3)[C@@H]1COc2cc(C#Cc3cnn(C)c3)ccc21 [Compound 39A, (S)-4-amino-7-fluoro-N-methyl-N-(6-((1-methyl-1H-pyrazol-4-yl)ethynyl)-2,3-dihydrobenzofuran-3-yl)-1,3-dihydrofuro[3,4-c]quinoline-8-carboxamide] |  |
|  | 1 | CN1CCn2c(C#Cc3ccc4c(c3)OC[C@H]4N(C)C(=O)c3cc4c(cc3Cl)nc(N)c3cnn(C)c34)cnc2C1 [Compound 51A, (S)-4-amino-7-chloro-N,1-dimethyl-N-(6-((7-methyl-5,6,7,8-tetrahydroimidazo[1,2-a]pyrazin-3-yl)ethynyl)-2,3-dihydrobenzofuran-3-yl)-1H-pyrazolo[4,3-c]quinoline-8-carboxamide] |  |
|  | 5.5 | CN(C(=O)c1cc2c(cc1F)nc(N)c1cnn(C)c12)[C@@H]1COc2cc(C#Cc3cccnc3F)ccc21 [Compound 54A, (S)-4-amino-7-fluoro-N-(6-((2-fluoropyridin-3-yl)ethynyl)-2,3-dihydrobenzofuran-3-yl)-N,1-dimethyl-1H-pyrazolo[4,3-c]quinoline-8-carboxamide] |  |
|  | 3 | Cc1ncccc1C#Cc1ccc2c(c1)OC[C@H]2N(C)C(=O)c1cc2c(cc1Cl)nc(N)c1cnn(C)c12 [Compound 64A, (S)-4-amino-7-chloro-N,1-dimethyl-N-(6-((2-methylpyridin-3-yl)ethynyl)-2,3-dihydrobenzofuran-3-yl)-1H-pyrazolo[4,3-c]quinoline-8-carboxamide] |  |
|  | 11 | CN(C(=O)c1cc2c3c(c(N)nc2cc1Cl)COC3)[C@@H]1COc2cc(C#Cc3cnn(C(F)F)c3)ccc21 [Compound 73A, (S)-4-amino-7-chloro-N-(6-((1-(difluoromethyl)-1H-pyrazol-4-yl)ethynyl)-2,3-dihydrobenzofuran-3-yl)-N-methyl-1,3-dihydrofuro[3,4-c]quinoline-8-carboxamide] |  |
|  | 11 | CN(C(=O)c1cc2c(cc1F)nc(N)c1cnn(C)c12)[C@@H]1COc2cc(C#Cc3ccc(C4CC4)nc3)ccc21 [Compound 77A, (S)-4-amino-N-(6-((6-cyclopropylpyridin-3-yl)ethynyl)-2,3-dihyrobenzofuran-3-yl)-7-fluoro-N,1-dimethyl-1H-pyrazolo[4,3-c]quinoline-8-carboxamide] |  |
